The target of assay [1] is AR in stickleback kidney cytosolic fraction. Kind of assay: Saturation and Scatchard analysis, kidney cytosolic fraction. The assay is classed as binding, three-spined stickleback (Gasterosteus aculeatus). The note with it: overnight 4°C. As for the experimental part: Aliquots (250 μl) of the nuclear or cytosolic preparations were added to each tube, the tubes were vortexed and incubated over night at 4°C. To stop the binding reaction, 250 μl DCC was added to each tube. The tubes were vortexed and the suspensions were incubated for 5 min at 4°C, before spinning at 3,000 × g at 4°C for 5 min. The supernatants were decanted into 7 ml scintillation vials, 5 ml of standard scintillation cocktail was added and the radioactivity in each sample was measured in a liquid scintillation counter (Beckman LS 6000SC, Beckman Instruments, Fullerton, CA). The procedure used for the expressed recombinant ARβ2 was modified as follows. […] The expressed proteins were diluted 1:100 and aliquots (100 μl) were added to each reaction tube. The tubes were vortexed and incubated over night at 4°C. To stop the binding reaction, 200 μl DCC was added to each tube. The tubes were vortexed and the suspension were incubated for 5 min at 4°C, before spinning at 3,000 × g at 4°C for 5 min. 250 μl of the supernatant was transferred into 5 ml scintillation vials and 4 ml of standard scintillation cocktail was added before the radioactivity in each sample was measured in a liquid scintillation counter (Wallac 1409, Wallac Oy, Turku, Finland).

Assay [2] addresses recombinant stickleback ARβ2 (Gasterosteus aculeatus, UniProt Q801Z2). The note with it: recombinant ARβ2, reticulocyte extract. As for the experimental part:
The excised AR pBK CMV clones were digested with XbaI and EcoRI and the inserts were gel purified prior to ligation into the pCMV-TNT vector (Promega) between XbaI and EcoRI. […] AR was expressed by introducing the pCMV-TNT into the TNT coupled reticulocyte lysate system (Promega) according to the manufacturer's instructions. The size of the expressed products was determined by addition of S^35-methionin to the reticulocyte lysate system. The obtained protein suspension was analyzed on a denaturing 8% SDS PAGE and the sizes were determined using prestained SDS-PAGE broad range protein molecular weight standard (Bio-Rad) and a control luciferase protein of 62 kDa included in the reticulocyte lysate system (Promega). […]
Aliquots (250 μl) of the nuclear or cytosolic preparations were added to each tube, the tubes were vortexed and incubated over night at 4°C. […] The supernatants were decanted into 7 ml scintillation vials, 5 ml of standard scintillation cocktail was added and the radioactivity in each sample was measured in a liquid scintillation counter (Beckman LS 6000SC, Beckman Instruments, Fullerton, CA). […] 250 μl of the supernatant was transferred into 5 ml scintillation vials and 4 ml of standard scintillation cocktail was added before the radioactivity in each sample was measured in a liquid scintillation counter (Wallac 1409, Wallac Oy, Turku, Finland).

Assay [3] concerns AR in three-spined stickleback kidney cytosolic extracts. The following applies: 4°C. As for the experimental part: The reaction was terminated at different time-points ranging between 1 min and 24 h. The specific binding at each time-point was determined as described above.

recombinant stickleback ARβ2, sequence (Q801Z2 1-735): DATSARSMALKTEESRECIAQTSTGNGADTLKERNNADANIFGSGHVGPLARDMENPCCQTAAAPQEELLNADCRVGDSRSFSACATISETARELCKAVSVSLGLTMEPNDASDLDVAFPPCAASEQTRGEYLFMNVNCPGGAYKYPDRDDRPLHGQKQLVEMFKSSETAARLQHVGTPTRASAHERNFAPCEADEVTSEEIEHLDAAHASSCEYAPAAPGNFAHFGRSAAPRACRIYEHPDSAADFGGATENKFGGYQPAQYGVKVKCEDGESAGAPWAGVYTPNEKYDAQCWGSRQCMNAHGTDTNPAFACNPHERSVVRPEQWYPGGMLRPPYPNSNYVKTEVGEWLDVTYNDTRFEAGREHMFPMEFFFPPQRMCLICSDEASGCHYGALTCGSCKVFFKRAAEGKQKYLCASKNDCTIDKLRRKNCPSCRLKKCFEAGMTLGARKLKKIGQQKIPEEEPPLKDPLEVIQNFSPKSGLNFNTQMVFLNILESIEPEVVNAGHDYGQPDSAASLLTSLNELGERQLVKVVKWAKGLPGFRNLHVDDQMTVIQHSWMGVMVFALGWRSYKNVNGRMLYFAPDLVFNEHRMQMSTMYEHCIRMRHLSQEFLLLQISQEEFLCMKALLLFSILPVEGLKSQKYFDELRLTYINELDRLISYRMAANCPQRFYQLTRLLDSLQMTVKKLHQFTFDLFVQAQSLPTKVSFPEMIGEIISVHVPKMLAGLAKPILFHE

For `C[C@]12CCC(=O)C[C@@H]1CC[C@@H]1[C@@H]2CC[C@]2(C)[C@@H](O)CC[C@@H]12` [[^3H]-DHT], in assay [1], the Kd (usually the equilibrium constant for the complex coming apart) came out at 18.7 ± 3.21 nM. In assay [2], the Bmax is listed as 0.324 ± 0.04 pmol/mg protein. For the same compound, in assay [3] (4 nM tracer), the “association t1/2” value was 3.3 min and the “time to reach binding equilibrium” value is 20 min. In assay [3] (100-fold excess unlabelled DHT), the “dissociation t1/2” value amounted to 80 min and the “time to complete dissociation” value was no more than 8 h.

These data come from paper PMC1192819, “Molecular cloning and characterization of a nuclear androgen receptor activated by 11-ketotestosterone” (Reproductive biology and endocrinology : RB&E, 2005).
